Data taken from the RepoRT retention time repository (doi:10.1021/acs.analchem.2c02893).

Test: RP, Thermo Scientific Acclaim RSLC 120 C18, 100 × 2.1 mm, 2.2 µm, 30 °C, 0.2 mL/min, estimated dead time 1.1 min; A: 90% water + 10% methanol + 0.01% formic acid + 5 mM ammonium formate, pH 3.61; B: methanol + 0.01% formic acid + 5 mM ammonium formate, pH 3.61; gradient (min/%B) 0/1 1/1 2/39 13/99.9 15/99.9 15.1/1 20.1/1
Conditions: stereoisomer not certain

SMILES	LC retention time [min]
COc1cc(CCN)c(OC)cc1C [2 C-D]	5.34
CCN(CC)C(=O)C1C=C2c3cccc4[nH]cc(c34)CC2NC1 (stereo unspecified) [LSD-Nor]	5.56
COc1ccc(-c2ccccc2)cc1NNC(=O)OC(C)C [Bifenazate]	9.87
O=C(c1cccc2ccccc12)c1cn(CCN2CCOCC2)c2ccccc12 [JWH-200]	9.88
CCOP(=S)(Oc1ccc([N+](=O)[O-])cc1)c1ccccc1 (stereo unspecified) [EPN]	11.7
O=C1NC(=O)C2CC=CCC12 (stereo not drawn) [Tetrahydrophthalimide (cis-) (1.2.3.6-)]	4.37
CC(C)=CC1C(C(=O)OCc2coc(Cc3ccccc3)c2)C1(C)C (stereo unspecified) [Bioresmethrin]	13.6
O=C(O)c1c(Cl)ccc2cc(Cl)cnc12 [Quinclorac]	4.9
CON(C)C(=O)Nc1ccc(Cl)cc1 [Monolinuron]	7.76
CC(N)Cc1c2ccoc2c(Br)c2ccoc12 (stereo unspecified) [Bromodragonfly]	7.41
CCS(=O)(=O)CCn1c([N+](=O)[O-])cnc1C [Tinidazole]	3.86
OCc1ncc2n1-c1ccc(Cl)cc1C(c1ccccc1F)=NC2 [Midazolam -1-Hydroxy]	8.44
C=CCC1=C(C)C(OC(=O)C2C(C=C(C)C(=O)OC)C2(C)C)CC1=O (stereo unspecified) [Allethrin II]	12.3
CC(C)Oc1cccc(NC(=O)c2ccccc2C(F)(F)F)c1 [Flutolanil]	9.52
O=C(Oc1cccc2cccnc12)c1cn(Cc2ccc(F)cc2)c2ccccc12 [FUB-PB-22]	11.1
CCC(CO)NCCNC(CC)CO (stereo unspecified) [Ethambutol]	1.93
CCN1CC2(COC)C(O)CC(OC)C34C5CC6(O)C(OC)C(O)C(OC(C)=O)(C5C6OC(=O)c5ccccc5)C(C(OC)C23)C14 (stereo unspecified) [Aconitine]	7.09
COCCN(C(=O)CCl)c1c(C)cccc1C [Dimethachlor]	8.58
CNC(=O)c1cc(Cl)cc(C)c1NC(=O)c1cc(Br)nn1-c1ncccc1Cl [Chlorantraniliprole]	8.7
[O-][n+]1nc(-n2ccnc2)nc2ccc(Cl)cc21 [Triazoxide]	8.37
O=C(NC(=O)c1c(F)cccc1F)Nc1cc(Cl)c(F)c(Cl)c1F [Teflubenzuron]	12.5
CCOC(=O)CCN(SN(C)C(=O)Oc1cccc2c1OC(C)(C)C2)C(C)C [Benfuracarb]	11.9
O=C1c2ccccc2C(=O)C1C(=O)C(c1ccccc1)c1ccccc1 [Diphacinone]	8.6
COc1cc(C(=O)OCCCN(C)CCN(C)CCCOC(=O)c2cc(OC)c(OC)c(OC)c2)cc(OC)c1OC [Hexobendine]	7.54
COc1cccc(C2(O)CCCCC2C[N+](C)(C)[O-])c1 (stereo unspecified) [Tramadol-N-oxide]	5.24
CC(C)(C)NCC(O)c1cc(Cl)c(N)c(C(F)(F)F)c1 (stereo unspecified) [Mabuterol]	5.28
CCCCCn1cc(C(=O)c2cccc3ccccc23)cc1-c1cccc(F)c1 [JWH-368]	13

SMILES	LC retention time [min]
O=C(Nc1cccc2cccnc12)c1nn(CCCCCF)c2ccccc12 [THJ-5F]	12.5
CCCCCn1cc(C(=O)Cc2cccc(OC)c2)c2ccccc21 [JWH-302]	11.6
COc1ccc(NC(=O)N(C)C)cc1Cl [Metoxuron]	6.17
COc1ccc2c3c1OC1C(=O)CCC4(O)C(C2)N(C)CCC314 (stereo unspecified) [Oxycodone]	3.61
Cc1nnc2n1-c1ccc(Cl)cc1C(c1ccccc1)=NC2 [Alprazolam]	8.36
COC(=O)COc1cc(Cl)c(Cl)cc1Cl [2.4.5-T-methylester]	10.8
O=C(c1cccc2ccccc12)c1cn(CCN2CCOCC2)c2cccc(O)c12 [JWH-200-M-4-OH-Ind]	10.1
CN1C(=O)CN=C(c2ccccc2F)c2cc(N)ccc21 [Flunitrazepam- 7-Amino]	5.41
CCc1ccc(C(=O)NN(C(=O)c2cc(C)cc(C)c2)C(C)(C)C)cc1 [Tebufenozide]	10.4
CC12CCC3c4ccc(O)c(O)c4CCC3C1CCC2=O (stereo unspecified)	8.69
CN(C)C1CSSSC1 [Thiocyclam]	3.16
CC12C=CC3=C4CCC(=O)C=C4CCC3C1CCC2O (stereo unspecified) [Trenbolone]	8.89
CC1=CC(=O)N2CC(=O)N(C)c3ccc(Cl)cc3C2(c2ccccc2)O1 (stereo unspecified) [Ketazolam]	9.79
NC(Cc1ccc(N(CCCl)CCCl)cc1)C(=O)O (stereo unspecified) [Melphalan]	7.01
CC(O)CCCn1cc(C(=O)c2cccc3ccccc23)c2ccccc21 (stereo unspecified) [JWH-018-M-N-4-OH-Pentyl]	10.1
CCCNC(C)Cc1ccccc1 (stereo unspecified) [Amphetamine-N-Propyl]	4.83
CN(C)CCc1c[nH]c2ccc(O)cc12 [Bufotenin]	2.82
CN(C)c1nc(N(C)C)nc(N(C)C)n1 [Altretamine]	10.1
COc1ccc(OC)c(CCN)c1 [2C-H]	4.43
CCC=CCC1=C(C)C(OC(=O)C2C(C=C(C)C(=O)OC)C2(C)C)CC1=O (stereo unspecified) [Pyrethrins: Jasmolin II]	12.2
COCCOCCOCCOC [Triglyme]	4.28
COC1CC(OC2C(C)OC(OC3C(C)=CCC4CC(CC5(C=CC(C)C(C(C)C)O5)O4)OC(=O)C4C=C(C)C(O)C5OCC(=CC=CC3C)C45O)CC2OC)OC(C)C1O (stereo unspecified) [AvermectinB1b (Abamectin)]	13.4
CSc1ccc(CC(C)N)cc1 (stereo unspecified) [MTA (4-)]	5.24
CC12CCC3c4ccc(O)cc4CCC3C1CC(O)C2O (stereo unspecified) [E3  estriol (1-3-5(10)-estratrien-3 16-17-triol)]	6.83
CC(=O)C1(O)CCC2C3CCC4=CC(=O)CCC4(C)C3CCC21C (stereo not drawn) [17alpha-Hydroxyprogesterone]	10
Nc1ccc2c(c1)C(c1ccccc1)=NCC(=O)N2 [Nitrazepam- 7-Amino]	4.78

Second part, the compound after the results:

LC retention time [min]	SMILES
5.93	Oc1ccc(C=Cc2cc(O)cc(O)c2)cc1 [Resveratrol]
12.5	COc1cccc(N(C)C(=S)Oc2cccc(C(C)(C)C)c2)n1 [Pyributicarb]
2.96	CC(C)NCC(O)c1ccc(NS(C)(=O)=O)cc1 (stereo unspecified) [Sotalol]
10.4	NC(=NN=Cc1ccc(Cl)cc1)NN=Cc1ccc(Cl)cc1 [Robenidine]
6.67	CSc1ccc(C(=O)c2[nH]c(=O)[nH]c2C)cc1 [Enoximon]
5.09	CN1C2CCC1CC(OC(=O)c1c[nH]c3ccccc13)C2 (stereo unspecified) [Tropisetron]
8.26	CN1CC(=O)N2C(Cc3c([nH]c4ccccc34)C2c2ccc3c(c2)OCO3)C1=O (stereo unspecified) [Tadalafil]
9.79	CC(C)(C)NC(=O)C1CN(Cc2cccnc2)CCN1CC(O)CC(Cc1ccccc1)C(=O)NC1c2ccccc2CC1O (stereo unspecified) [Indinavir]
12.7	O=C(NC(CO)C(O)c1ccc([N+](=O)[O-])cc1)C(Cl)Cl (stereo unspecified) [CAF-3]
10.7	CCCN(CCC)C(=O)SCC [EPTC]
7.63	C[N+]1([O-])CCN2c3ccccc3Cc3ccccc3C2C1 (stereo unspecified) [Mianserine-N-oxide]
9.34	COC(=O)C1Cc2c([nH]c3ccccc23)C(c2ccc3c(c2)OCO3)N1C(=O)CCl (stereo unspecified) [Chloropretadalafil]
4.6	Cc1cc(NS(=O)(=O)c2ccc(N)cc2)no1 [Sulfamethoxazole]
7.21	CN(C)CCCN1c2ccccc2Sc2cccnc21 [Prothipendyl]
4.75	COc1ncnc(NS(=O)(=O)c2ccc(N)cc2)c1OC [Sulfadoxine]
2	NCC(O)COc1ccc(CC(N)=O)cc1 (stereo unspecified) [Atenolol-desisopropyl]
5.92	CCc1nc(N)nc(N)c1-c1ccc(Cl)cc1 [Pyrimethamine]

LC retention time [min]	SMILES
9.05	CCC(c1ccccc1)c1c(O)c2ccccc2oc1=O (stereo unspecified) [Phenprocoumon]
7.66	CC(C)OC(=O)Nc1ccc2nc(-c3cscn3)[nH]c2c1 [Cambendazol]
10.8	CC(C)OC(=O)C(C)N(C(=O)c1ccccc1)c1ccc(F)c(Cl)c1 (stereo unspecified) [Flamprop-isopropyl]
4.57	NC(N)=NCC1COc2ccccc2O1 (stereo unspecified) [Guanoxan]
10.7	CN(C)C(=O)SCCCCOc1ccccc1 [Fenothiocarb]
8.29	CCc1cc2cc(OC)c(OC)cc2c(Cc2ccccc2)n1 [Moxaverine]
9.24	CC=CC(=O)N(CC)c1ccccc1C [Crotamiton]
11.9	CCOc1cc(CC(=O)NC(CC(C)C)c2ccccc2N2CCCCC2)ccc1C(=O)O (stereo unspecified) [Repaglinide]
10.9	CC(C)n1c(C=CC(O)CC(O)CC(=O)O)c(-c2ccc(F)cc2)c2ccccc21 (stereo unspecified) [Fluvastatin]
9.04	CCOc1ccc(NC(=O)OC(C)C)cc1OCC [Diethofencarb]
7.83	OCCN1CCN(CCCN2c3ccccc3C=Cc3ccccc32)CC1 [Opipramol]
3.11	CC(C)(C)NCC(O)c1cc(O)cc(O)c1 (stereo unspecified) [Terbutaline]
10.2	CN(C)C=Nc1c(I)cc(I)c(CCC(=O)O)c1I [Iopodic acid]
5.71	CC(C)N(C(=O)CS(=O)(=O)O)c1ccc(F)cc1 [Flufenacet-ESA]
8.31	CC(CN(C)C)CN1c2ccccc2CCc2ccccc21 (stereo unspecified) [Trimipramine]
9.64	COC(=O)c1c(Cl)ccc(Cl)c1OC [Dicamba-methyl]
